Where “and” joins values, the source holds several entries; their conditions need not be identical. Identical values can stand only once. Inconclusive results and toxic doses are left out.

For this test, the system named is L1210 leukemia ip in BDF1 mice, survival T/C. The experiment in a line: NCI In Vivo Anticancer Drug Screen. Data for tumor model L1210 Leukemia (intraperitoneal) in B6D2F1 (BDF1) mice. The note with it: higher = longer survival. The essentials: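 Each compound was tested against a transplantable tumor grown in mice. The endpoint was survival, with treated animals benchmarked against vehicle controls as a simple ratio.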

The mark [1] stands for this setting: endpoint: mean survival time, dose: 100.0 mg/kg/injection, schedule: Q01DX001 (ip), vehicle: saline.
Setting [2] is: endpoint: mean survival time, dose: 200.0 mg/kg/injection, schedule: Q01DX001 (ip), vehicle: saline.
The mark [3] stands for this setting: endpoint: mean survival time, dose: 400.0 mg/kg/injection, schedule: Q01DX001 (ip), vehicle: saline.
Where [4] appears, read: endpoint: mean survival time, dose: 100.0 mg/kg/injection, schedule: Q01DX009 (ip), vehicle: saline.
Where [5] appears, read: endpoint: mean survival time, dose: 100.0 mg/kg/injection, schedule: Q01DX001 (ip), vehicle: saline with Tween-80.
The mark [6] stands for this setting: endpoint: mean survival time, dose: 12.5 mg/kg/injection, schedule: Q01DX009 (ip), vehicle: Klucel (hydroxypropylcellulose) (HPC).
Where [7] appears, read: endpoint: mean survival time, dose: 50.0 mg/kg/injection, schedule: Q01DX009 (ip), vehicle: Klucel (hydroxypropylcellulose) (HPC).

As for `BrC1CCCCC1Br` (stereo not given), the T/C is, setting by setting: under setting [1], 98 % of control; under setting [2], 101 % of control.

In the case of `CCCC(=O)OCc1cnc(SC)nc1N`, the T/C runs as follows: under setting [1], 100 % of control; under setting [2], 97 % of control; under setting [3], 93 % of control.

`CCOC(=O)c1c[nH]c2oc(/C=N/N3CC(CN4CCOCC4)OC3=O)cc2c1=O` (stereo not given): the T/C is 110 % of control (endpoint: median survival time, dose: 25.0 mg/kg/injection, schedule: Q01DX009 (ip), vehicle: acid diluted with saline); 111 % of control (endpoint: median survival time, dose: 50.0 mg/kg/injection, schedule: Q01DX009 (ip), vehicle: acid diluted with saline); 152 % of control (endpoint: median survival time, dose: 200.0 mg/kg/injection, schedule: Q01DX009 (ip), vehicle: acid diluted with saline).

With `CC(C)N(c1ccc(C(=NO)c2ccc(N(C(C)C)C(C)C)cc2)cc1)C(C)C`, the T/C is 90 % of control (endpoint: mean survival time, dose: 100.0 mg/kg/injection, schedule: Q04DX003 (ip), vehicle: Klucel (hydroxypropylcellulose) (HPC)); 88 % of control (endpoint: mean survival time, dose: 200.0 mg/kg/injection, schedule: Q04DX003 (ip), vehicle: Klucel (hydroxypropylcellulose) (HPC)); 92 % of control (endpoint: mean survival time, dose: 400.0 mg/kg/injection, schedule: Q04DX003 (ip), vehicle: Klucel (hydroxypropylcellulose) (HPC)).

As to `COC1OC(CI)C(OC(C)=O)C(OC(C)=O)C1OC(C)=O` (stereo not given), the T/C (endpoint: mean survival time, dose: 50.0 mg/kg/injection, schedule: Q04DX002 (ip), vehicle: Klucel (hydroxypropylcellulose) (HPC)) is 94 % of control; the T/C (endpoint: mean survival time, dose: 100.0 mg/kg/injection, schedule: Q04DX002 (ip), vehicle: Klucel (hydroxypropylcellulose) (HPC)) is 94 % of control; the T/C (endpoint: mean survival time, dose: 200.0 mg/kg/injection, schedule: Q04DX002 (ip), vehicle: Klucel (hydroxypropylcellulose) (HPC)) is 97 % of control.

`C=CCCCCn1c2ccccc2c2c(C)c3cnccc3c(C)c21`: the T/C is 91 % of control (endpoint: mean survival time, dose: 100.0 mg/kg/injection, schedule: Q04DX003 (ip), vehicle: saline with Tween-80); 91 % of control (endpoint: mean survival time, dose: 200.0 mg/kg/injection, schedule: Q04DX003 (ip), vehicle: saline with Tween-80); 92 % of control (endpoint: mean survival time, dose: 400.0 mg/kg/injection, schedule: Q04DX003 (ip), vehicle: saline with Tween-80).

For `Cc1ccc2ccc(-c3ccccc3)nc2c1`, the T/C is 96 % of control under setting [1]; 93 % of control under setting [4]; 105 % of control under setting [2]; 90 % of control (endpoint: mean survival time, dose: 200.0 mg/kg/injection, schedule: Q01DX009 (ip), vehicle: saline); 109 % of control under setting [3]; 92 % of control (endpoint: mean survival time, dose: 400.0 mg/kg/injection, schedule: Q01DX009 (ip), vehicle: saline).

With `Cn1c(-c2ccccc2)nc2c(N)ncnc21`, the T/C is 95 % of control (endpoint: mean survival time, dose: 25.0 mg/kg/injection, schedule: Q01DX001 (ip), vehicle: saline with Tween-80); 90 % of control (endpoint: mean survival time, dose: 50.0 mg/kg/injection, schedule: Q01DX001 (ip), vehicle: saline with Tween-80); 90 % of control under setting [5].

As to `O=C(CN1C(=O)C2CCCCC2C1=O)N1CC1` (stereo not given), the T/C is, setting by setting: (endpoint: mean survival time, dose: 100.0 mg/kg/injection, schedule: Q01DX001 (ip), vehicle: carboxymethylcellulose (CMC)) 110 % of control; (endpoint: mean survival time, dose: 200.0 mg/kg/injection, schedule: Q01DX001 (ip), vehicle: carboxymethylcellulose (CMC)) 103 % of control.

With `CS(C)=O`, the T/C under setting [1] was 112 % of control; the T/C under setting [2] was 102 % of control; the T/C under setting [3] was 106 % of control; the T/C (endpoint: mean survival time, dose: 1500.0 mg/kg/injection, schedule: Q01DX Z (ip), vehicle: other) is 98 % of control; the T/C (endpoint: mean survival time, dose: 1.6 grams/kg/injection, schedule: Q03HX008 (ip), vehicle: saline) is 97 % of control; the T/C (endpoint: mean survival time, dose: 1.6 grams/kg/injection, schedule: Q03HX016 (ip), vehicle: saline) was 101 % of control. Besides, the T/C is, setting by setting: (endpoint: mean survival time, dose: 1.6 grams/kg/injection, schedule: Q03HX024 (ip), vehicle: saline) 105 % of control; (endpoint: mean survival time, dose: 3000.0 mg/kg/injection, schedule: Q01DX Z (ip), vehicle: other) 98 % of control; (endpoint: mean survival time, dose: 3.1 grams/kg/injection, schedule: Q01DX001 (ip), vehicle: saline) 104 % of control; (endpoint: mean survival time, dose: 3.1 grams/kg/injection, schedule: Q01DX009 (ip), vehicle: saline) 100 % of control; (endpoint: mean survival time, dose: 3.1 grams/kg/injection, schedule: Q03HX008 (ip), vehicle: saline) 91 % of control; (endpoint: mean survival time, dose: 3.1 grams/kg/injection, schedule: Q03HX024 (ip), vehicle: saline) 110 % of control. Besides, the T/C was 95 % of control (endpoint: mean survival time, dose: 3.1 grams/kg/injection, schedule: Q04DX003 (ip), vehicle: saline); 98 % of control (endpoint: mean survival time, dose: 3.1 grams/kg/injection, schedule: Q08DX002 (ip), vehicle: saline); 100 % of control (endpoint: mean survival time, dose: 6.3 grams/kg/injection, schedule: Q01DX001 (ip), vehicle: saline); 97 % of control (endpoint: mean survival time, dose: 6.3 grams/kg/injection, schedule: Q01DX009 (ip), vehicle: saline); 95 % of control (endpoint: mean survival time, dose: 6.3 grams/kg/injection, schedule: Q04DX003 (ip), vehicle: saline); 96 % of control (endpoint: mean survival time, dose: 6.3 grams/kg/injection, schedule: Q08DX002 (ip), vehicle: saline). The T/C is 106 % of control (endpoint: median survival time, dose: 0.5 mg/kg/injection, schedule: Q#C X009 (adlb), vehicle: water); 92 % of control (endpoint: median survival time, dose: 1.0 mg/kg/injection, schedule: Q01DX019 (adlb), vehicle: water); 102 % of control (endpoint: median survival time, dose: 1.0 mg/kg/injection, schedule: Q#C X009 (adlb), vehicle: water); 97 % of control (endpoint: median survival time, dose: 2.0 mg/kg/injection, schedule: Q01DX019 (adlb), vehicle: water); 107 % of control (endpoint: median survival time, dose: 2.0 mg/kg/injection, schedule: Q#C X009 (adlb), vehicle: water); 99 % of control (endpoint: median survival time, dose: 4.0 mg/kg/injection, schedule: Q01DX019 (adlb), vehicle: water). For the same compound, the T/C reads like this: (endpoint: median survival time, dose: 4.0 mg/kg/injection, schedule: Q#C X009 (adlb), vehicle: water) 101 % of control; (endpoint: median survival time, dose: 8.0 mg/kg/injection, schedule: Q#C X009 (adlb), vehicle: water) 103 % of control.

For the compound `NNS(=O)(=O)c1ccc([N+](=O)[O-])cc1`, the T/C by setting is: under setting [6], 109 % of control; (endpoint: mean survival time, dose: 25.0 mg/kg/injection, schedule: Q01DX009 (ip), vehicle: Klucel (hydroxypropylcellulose) (HPC)) 106 % of control; under setting [7], 101 % of control.

Consider `C=CC12COC(=O)C(=C)C1C1OC(=O)C(=C)C1C(O)C2` (stereo not given), for which the T/C (endpoint: mean survival time, dose: 2.5 mg/kg/injection, schedule: Q01DX009 (ip), vehicle: saline + alcohol) was 102 % of control; the T/C (endpoint: mean survival time, dose: 4.0 mg/kg/injection, schedule: Q01DX009 (ip), vehicle: saline) was 104 % of control; the T/C (endpoint: mean survival time, dose: 4.0 mg/kg/injection, schedule: Q01DX009 (ip), vehicle: water) is 103 % of control; the T/C (endpoint: mean survival time, dose: 5.0 mg/kg/injection, schedule: Q01DX009 (ip), vehicle: saline + alcohol) was 110 % of control; the T/C (endpoint: mean survival time, dose: 6.0 mg/kg/injection, schedule: Q01DX009 (ip), vehicle: saline) was 113 % of control; the T/C (endpoint: mean survival time, dose: 8.0 mg/kg/injection, schedule: Q01DX009 (ip), vehicle: saline) is 124 % of control. Further, the T/C runs as follows: (endpoint: mean survival time, dose: 8.0 mg/kg/injection, schedule: Q01DX009 (ip), vehicle: water) 118 % of control; (endpoint: mean survival time, dose: 10.0 mg/kg/injection, schedule: Q01DX009 (ip), vehicle: saline) 111 % of control.

With `Cc1ccc(S(=O)(=O)OCCC2(C)CC2)cc1`, the T/C by setting is: under setting [5], 93 % of control; (endpoint: mean survival time, dose: 200.0 mg/kg/injection, schedule: Q01DX001 (ip), vehicle: saline with Tween-80) 90 % of control; (endpoint: mean survival time, dose: 400.0 mg/kg/injection, schedule: Q01DX001 (ip), vehicle: saline with Tween-80) 90 % of control.

For `CC(C)Nc1nc(N)nc2nc(-c3ccc(Cl)cc3)c(-c3ccc(Cl)cc3)nc12`, the T/C is, setting by setting: under setting [1], 100 % of control; under setting [2], 113 % of control; under setting [3], 107 % of control.

Turning to `Cc1c(CNc2ccc(Cl)c(C(=O)NC(CC(=O)O)C(=O)O)c2)ccc2nc(N)nc(N)c12` (stereo not given), the T/C reads like this: (endpoint: mean survival time, dose: 1.5 mg/kg/injection, schedule: Q01DX009 (ip), vehicle: Klucel (hydroxypropylcellulose) (HPC)) 110 % of control; (endpoint: mean survival time, dose: 3.0 mg/kg/injection, schedule: Q01DX009 (ip), vehicle: Klucel (hydroxypropylcellulose) (HPC)) 115 % of control; (endpoint: mean survival time, dose: 3.13 mg/kg/injection, schedule: Q01DX009 (ip), vehicle: Klucel (hydroxypropylcellulose) (HPC)) 120 % of control; (endpoint: mean survival time, dose: 6.0 mg/kg/injection, schedule: Q01DX009 (ip), vehicle: Klucel (hydroxypropylcellulose) (HPC)) 110 % of control and 92 % of control; under setting [6], 160 % of control; under setting [7], 168 % of control. Besides, the T/C is 97 % of control and 100 % of control (endpoint: mean survival time, dose: 100.0 mg/kg/injection, schedule: Q01DX009 (ip), vehicle: Klucel (hydroxypropylcellulose) (HPC)); 162 % of control under setting [4]; 122 % of control (endpoint: mean survival time, dose: 267.0 mg/kg/injection, schedule: Q01DX001 (ip), vehicle: saline).

(Values after PubChem BioAssay AID248 (DTP/NCI, 2004).)
